Measurements published in patent publication US7807678B2, “Peptidomimetics of biologically active metallopeptides” (Palatin Technologies, Inc., priority 2001, dated 2010).

What was measured:
[1] = target: T1, MC1-R (B-16 mouse melanoma cells) (Mus musculus, UniProt Q01727); experiment: Competitive inhibition binding assay, 125I-NDP-α-MSH, MC1-R; conditions: for Inhibition at 1 μM MC1-R: 1 μM compound, inhibition of 125I-NDP-α-MSH binding, mean of triplicates, results less than 0% reported as 0%
T1 construct: B-16 mouse melanoma cells (containing MC1-R); endogenous in cells; host or cells: B-16 mouse melanoma cells
Method: (§1) The competitive inhibition binding assay was conducted using membranes prepared from hMC3-R, hMC4-R, hMC5-R, and B-16 mouse melanoma cells (containing MC1-R) using 0.4 nM ^125I-NDP-α-MSH (New England Nuclear, Boston, Mass., USA) in 50 mM HEPES buffer containing 1 mM MgCl2, 2 mM CaCl2, and 5 mM KCl, at pH 7.2. The assay tube also contained a chosen concentration of the test peptidomimetic of this invention, generally 1 μM, for determining its efficacy in inhibiting the binding of ^125I-NDP-α-MSH to its receptor.
(§2) Incubation was for 90 minutes at room temperature, after which the assay mixture was filtered and the membranes washed three times with ice cold buffer. The filter was dried and counted in a gamma counter for remaining radioactivity bound to the membranes. 100% specific binding was defined as the difference in radioactivity (cpm) bound to cell membranes in the absence and presence of 1 μM α-MSH. […] Each assay was conducted in triplicate and the actual mean values are described.

MC4-R = MC4-R (Homo sapiens, UniProt P32245); experiment: Competitive inhibition binding assay, 125I-NDP-α-MSH, MC4-R; parameters: expressed in transfected cells; conditions: for Inhibition at 1 μM MC4-R: 1 μM compound, inhibition of 125I-NDP-α-MSH binding, mean of triplicates, results less than 0% reported as 0%
Method: as §1, §2

MC3-R = MC3-R (Homo sapiens, UniProt P41968); experiment: Competitive inhibition binding assay, 125I-NDP-α-MSH, MC3-R; parameters: expressed in transfected cells; conditions: for Inhibition at 1 μM MC3-R: 1 μM compound, inhibition of 125I-NDP-α-MSH binding, mean of triplicates, results less than 0% reported as 0%
Method: as §1, §2

MC5-R = MC5-R (Homo sapiens, UniProt P33032); experiment: Competitive inhibition binding assay, 125I-NDP-α-MSH, MC5-R; parameters: expressed in transfected cells; conditions: 1 μM compound; inhibition of 125I-NDP-α-MSH binding; mean of triplicates; results less than 0% reported as 0%
Method: as §1, §2

T1 sequence (Q01727 whole entry): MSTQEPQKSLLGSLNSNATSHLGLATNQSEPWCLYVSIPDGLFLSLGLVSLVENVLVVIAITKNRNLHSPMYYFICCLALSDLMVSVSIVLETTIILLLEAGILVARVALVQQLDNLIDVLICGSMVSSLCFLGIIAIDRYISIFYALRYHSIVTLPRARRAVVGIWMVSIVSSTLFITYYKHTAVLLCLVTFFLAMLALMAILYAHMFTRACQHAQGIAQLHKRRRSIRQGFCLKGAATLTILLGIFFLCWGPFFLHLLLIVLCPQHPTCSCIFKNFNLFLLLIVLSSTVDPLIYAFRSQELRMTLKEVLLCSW
MC5-R, sequence (P33032 whole entry): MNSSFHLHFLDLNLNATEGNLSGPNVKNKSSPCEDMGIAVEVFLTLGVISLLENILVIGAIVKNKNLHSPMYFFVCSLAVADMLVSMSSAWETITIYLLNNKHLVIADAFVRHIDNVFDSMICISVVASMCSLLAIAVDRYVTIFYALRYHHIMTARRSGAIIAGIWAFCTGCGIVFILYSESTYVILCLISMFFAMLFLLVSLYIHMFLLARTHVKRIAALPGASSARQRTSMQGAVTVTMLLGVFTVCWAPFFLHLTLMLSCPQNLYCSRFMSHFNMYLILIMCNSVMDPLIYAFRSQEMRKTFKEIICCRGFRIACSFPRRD
MC4-R, sequence (P32245 whole entry): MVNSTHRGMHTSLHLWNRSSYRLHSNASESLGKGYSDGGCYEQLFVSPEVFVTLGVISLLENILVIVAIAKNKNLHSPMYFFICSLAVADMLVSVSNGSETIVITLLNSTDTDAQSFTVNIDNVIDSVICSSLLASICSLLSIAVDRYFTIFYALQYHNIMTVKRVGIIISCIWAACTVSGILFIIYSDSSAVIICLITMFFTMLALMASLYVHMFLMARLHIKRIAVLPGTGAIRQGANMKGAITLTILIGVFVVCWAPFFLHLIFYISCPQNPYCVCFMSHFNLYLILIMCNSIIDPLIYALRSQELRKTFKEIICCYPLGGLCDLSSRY
MC3-R, sequence (P41968 whole entry): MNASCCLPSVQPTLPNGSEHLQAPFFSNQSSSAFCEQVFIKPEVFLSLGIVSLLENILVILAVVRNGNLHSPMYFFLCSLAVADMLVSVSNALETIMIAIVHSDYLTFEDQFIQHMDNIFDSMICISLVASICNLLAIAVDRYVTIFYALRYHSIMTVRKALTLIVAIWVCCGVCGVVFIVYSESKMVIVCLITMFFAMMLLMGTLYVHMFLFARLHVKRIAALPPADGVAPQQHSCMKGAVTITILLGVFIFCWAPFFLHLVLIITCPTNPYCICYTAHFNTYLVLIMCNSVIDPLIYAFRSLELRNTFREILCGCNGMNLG

Row | SMILES | Inhibition at 1 μM MC1-R [1] | Inhibition at 1 μM MC4-R (MC4-R) | Inhibition at 1 μM MC3-R (MC3-R) | Inhibition at 1 μM MC5-R (MC5-R) | inhibition at 1 µM [1] | inhibition at 1 µM (MC4-R) | inhibition at 1 µM (MC3-R)
1 | NCCCC[C@H]1C(=O)N(CCc2ccccc2)CCN1C(=O)[C@@H](Cc1ccc(Cl)cc1)NC(=O)[C@@H]1Cc2ccccc2CN1 [Example 13] | 68% | 66% | 21% | 16% |  |  | 
2 | NCCCC[C@H]1C(=O)N(CCc2ccc3ccccc3c2)CCN1C(=O)[C@H](N)Cc1ccc(Cl)cc1Cl [Example 35] | 9% | 62% | 3% | 4% |  |  | 
3 | CC(O)C(N)C(=O)NC(Cc1ccccc1)C(=O)N1CC(OCc2ccccc2)CC1C(=O)NCCCN (stereo not shown) [Example 176] | 18% | 8% | 0% | 8% |  |  | 
4 | NCCCNC(=O)[C@@H]1C[C@@H](OCc2ccccc2)CN1C(=O)[C@@H](Cc1ccccc1)NC(=O)C1(N)CCCCC1 [Example 162] | 0% | 8% | 41% | 0% |  |  | 
5 | Cc1ccc(CCN2CCN(C(=O)[C@H](N)Cc3ccc(Cl)cc3)[C@@H](CCCNC(=N)N)C2=O)cc1 [Example 127] | 9% | 49% | 9% | 17% |  |  | 
6 | N=C(N)NCCC[C@H]1C(=O)N(CCc2c[nH]c3ccccc23)CCN1C(=O)[C@H](N)Cc1ccc(Cl)cc1Cl [Example 124] | 7% | 96% | 57% | 35% |  |  | 
7 | CC(=O)NCCCC[C@H]1C(=O)N(CCc2ccc3ccccc3c2)CCN1C(=O)[C@H](N)Cc1ccc(Cl)cc1Cl [Example 65] | 17% | 26% | 3% | 0% |  |  | 
8 | NCCCC[C@H]1C(=O)N2C(CC[C@@H]2COc2ccc3ccccc3c2)N1C(=O)[C@@H](Cc1ccccc1Cl)NC(=O)[C@@H](N)COCc1ccccc1 (stereo partly shown) [Example 82] | 28% | 60% | 0% | 38% |  |  | 
9 | N=C(N)NCCC[C@H]1C(=O)N(CCc2c[nH]c3ccccc23)CCN1C(=O)[C@H](N)Cc1ccc(Cl)cc1 [Example 125] | 10% | 68% | 28% | 43% |  |  | 
10 | N[C@H](Cc1ccc(Cl)cc1Cl)C(=O)N1CCN(CCc2ccc3ccccc3c2)C(=O)[C@@H]1CCCCNC(=O)c1ccc(O)cc1 [Example 61] | 3% | 12% | 6% | 26% |  |  | 
11 | N[C@@H](COCc1ccccc1)C(=O)N[C@H](Cc1ccc(Cl)cc1Cl)C(=O)N1CCN(CCc2ccc3ccccc3c2)C(=O)[C@@H]1CCCNS(N)(=O)=O [Example 46] | 0% | 60% | 12% | 25% |  |  | 
12 | NCCCNC(=O)[C@@H]1C[C@@H](OCc2ccccc2)CN1C(=O)[C@@H](Cc1ccccc1)NC(=O)C1(N)CCCC1 [Example 161] | 3% | 10% | 23% | 0% |  |  | 
13 | NCCCNC(=O)C1CC(OCc2ccccc2)CN1C(=O)C(Cc1ccccc1)NC(=O)C1NCCc2ccccc21 (stereo not shown) [Example 159] | 0% | 1% | 14% | 0% |  |  | 
14 | [2H]N[C@@H](Cc1cnc[nH]1)C(=O)N[C@@H](Cc1ccccc1)C(=O)N1C2CC[C@H](COc3ccc4ccccc4c3)N2C(=O)[C@@H]1CCCCN (stereo partly shown) [Example 111] |  |  |  |  | 94% | 10% | 9%
